Earlier results in PMC6838683, “Discovery of Human Signaling Systems: Pairing Peptides to G Protein-Coupled Receptors” (Cell, 2019).
Read-outs that look alike come from different tables or passages of the source. No end group written: not given here.

Test system: human GPCRs
Design: method as in Guide to Pharmacology database
Conditions: max reported value, ref Guide to Pharmacology database, cited from earlier work
Description: Supplement mmc1.xlsx, sheet "HumanGPCRLigands" | column: pKi_value; pKd_value; pEC50_value; pIC50_value

[1] = receptor gipr_human (GIPR, P48546)
[2] = receptor ghsr_human (GHSR, Q92847)
[3] = receptor glp1r_human (GLP1R, P43220)
[4] = receptor glp2r_human (GLP2R, O95838)
[5] = receptor kissr_human (KISS1R, Q969F8)
[6] = receptor nmur1_human (NMUR1, Q9HB89)
[7] = receptor nmur2_human (NMUR2, Q9GZQ4)
[8] = receptor npbw2_human (NPBWR2, P48146)
[9] = receptor npbw1_human (NPBWR1, P48145)
[10] = receptor NPY4R (npy4r_human, P50391)
[11] = receptor NPY5R (npy5r_human, Q15761)
[12] = receptor OPRL1 (oprx_human, P41146)
[13] = receptor RXFP1 (rxfp1_human, Q9HBX9)
[14] = receptor RXFP2 (rxfp2_human, Q8WXD0)
[15] = receptor RXFP3 (rl3r1_human, Q9NSD7)
[16] = receptor RXFP4 (rl3r2_human, Q8TDU9)
[17] = receptor crfr2_human (CRHR2, Q13324)
[18] = receptor UTS2R (ur2r_human, Q9UKP6)
[19] = receptor OPRK1 (oprk_human, P41145)

For “endothelin-2 (CSCSSWLDKECVYFCHLDIIW; ends and bridges not checked; cysteine pairing not given here; UniProt P20800 49-69, looked up)”, the pIC50_value (receptor ednra_human (EDNRA, P25101)) is given as 8.2.

For endothelin-3, the pKd_value (receptor ednrb_human (EDNRB, P24530)) is given as 11.5.

For “galanin-like peptide (APAHRGRGGWTLNSAGYLLGPVLHLPQMGDQDGKRETALEILDLWKAIDGLPYSHPPQPS; not fully specified; UniProt Q9UBC7 25-84, looked up)”, the pIC50_value (receptor galr1_human (GALR1, P47211)) is listed as 7.1, the pIC50_value (receptor galr2_human (GALR2, O43603)) is listed as 7.7 and the pIC50_value (receptor galr3_human (GALR3, O60755)) is listed as 8.

In the case of gastric inhibitory polypeptide, the pKd_value [1] is given as 8.7 and the pKi_value [1] is given as 9.1.

In the case of “ghrelin (GSSFLSPEHQRVQQRKESKKPPAKLQPR; not fully specified; ends and bridges not checked; UniProt Q9UBU3 24-51, looked up)”, the pEC50_value [2] is listed as 7.5, the pKd_value [2] is listed as 9.4 and the pKi_value [2] is listed as 8.1.

In the case of glucagon, the pKi_value [3] is listed as 7 and the pEC50_value (receptor glr_human (GCGR, P47871)) is listed as 9.

For glucagon-like peptide 1-(7-36) amide, the pKi_value [3] is given as 9.2.

For glucagon-like peptide 2, the pIC50_value [4] is listed as 8.5.

For “glucagon-like peptide 2-(3-33) (DGSFSDEMNTILDNLAARDFINWLIQTKITD; Glucagon-like peptide 2; UniProt P01275 148-178, looked up, fragment)”, the pIC50_value [4] is listed as 7.4.

In the case of humanin, the pEC50_value (receptor fpr3_human (FPR3, P25089)) is listed as 8.9.

For kallidin, the pKi_value (receptor bkrb1_human (BDKRB1, P46663)) is listed as 8.9 and the pIC50_value (receptor bkrb2_human (BDKRB2, P30411)) is listed as 9.3.

For “kisspeptin-13 (LPNYNWNSFGLRF; not fully specified; ends and bridges not checked; UniProt Q15726 109-121, looked up)”, the pKi_value [5] is given as 8.4.

For “kisspeptin-14 (DLPNYNWNSFGLRF; not fully specified; ends and bridges not checked; UniProt Q15726 108-121, looked up)”, the pKi_value [5] is listed as 8.8.

For “kisspeptin-54 (GTSLSPPPESSGSPQQPGLSAPHSRQIPAPQGAVLVQREKDLPNYNWNSFGLRF; ends and bridges not checked; UniProt Q15726 68-121, looked up)”, the pKi_value [5] is listed as 9.5.

For lysophosphatidylinositol, the pEC50_value (receptor GPR55 (gpr55_human, Q9Y2T6)) is listed as 7.3.

In the case of melanin-concentrating hormone, the pKi_value (receptor mchr1_human (MCHR1, Q99705)) is given as 10.5 and the pIC50_value (receptor mchr2_human (MCHR2, Q969V1)) is given as 9.2.

For “neuromedin S-33 (ILQRGSGTAAVDFTKKDHTATWGRPFFLFRPRN; not fully specified; ends and bridges not checked; UniProt Q5H8A3 109-141, looked up)”, the pEC50_value [6] is given as 10.2, the pIC50_value [6] is given as 10 and the pEC50_value [7] is given as 10. For the same molecule, the pIC50_value [7] was 9.2.

For “neuromedin U-25 (FRVDEEFQSPFASQSRGYFLFRPRN-NH2)”, the pEC50_value [6] is listed as 9.4, the pKi_value [6] is listed as 9.5 and the pEC50_value [7] is listed as 9.4. The pKi_value [7] was 9.6.

In the case of “neuropeptide B-23 (WYKPAAGHSSYSVGRAAGLLSGL)”, the pIC50_value [8] is listed as 8.4.

In the case of “neuropeptide B-29 (WYKPAAGHSSYSVGRAAGLLSGLRRSPYA; not fully specified; UniProt Q8NG41 25-53, looked up)”, the pIC50_value (receptor NPBWR2 (npbw2_human, P48146)) is given as 9 and the pIC50_value [9] is given as 9.5.

For neuropeptide FF, the pKi_value (receptor npff1_human (NPFFR1, Q9GZQ6)) is given as 9.9 and the pKi_value (receptor npff2_human (NPFFR2, Q9Y5X5)) is given as 9.7.

In the case of “neuropeptide W-23 (WYKHVASPRYHTVGRAAGLLMGL)”, the pIC50_value [9] is listed as 10 and the pIC50_value [8] is listed as 9.6.

For “neuropeptide W-30 (WYKHVASPRYHTVGRAAGLLMGLRRSPYLW; not fully specified; UniProt Q8N729 33-62, looked up)”, the pIC50_value [9] is listed as 10.6 and the pIC50_value [8] is listed as 9.4.

In the case of neuropeptide Y, the pKi_value [10] is listed as 8 and the pKi_value [11] is listed as 9.1.

In the case of nociceptin/orphanin FQ, the pEC50_value [12] is given as 9.8 and the pKi_value [12] is given as 10.4.

In the case of “orexin-A (QPLPDCCRQKTCSCRLYELLHGAGNHAAGILTL; not fully specified; ends and bridges not checked; UniProt O43612 34-66, looked up)”, the pEC50_value (receptor HCRTR1 (ox1r_human, O43613)) is listed as 10.2 and the pEC50_value (receptor HCRTR2 (ox2r_human, O43614)) is listed as 10.

For pancreatic polypeptide, the pKi_value [10] is given as 10.9 and the pKi_value [11] is given as 8.

In the case of relaxin, the pEC50_value [13] is given as 10.4, the pKi_value [13] is given as 10.2 and the pEC50_value [14] is given as 9.1. For the same molecule, the pKi_value [14] was 8.5, the pEC50_value [15] was 8.4 and the pKd_value [15] was 10.

In the case of relaxin-3, the pKi_value [13] is listed as 8, the pKi_value [14] is listed as 7 and the pEC50_value [15] is listed as 9.9. For the same molecule, the pIC50_value [15] was 9.6, the pKi_value [15] was 8.9 and the pEC50_value [16] was 9. For the same molecule, the pIC50_value [16] was 9 and the pKi_value [16] was 9.

In the case of secretin, the pEC50_value (receptor sctr_human (SCTR, P47872)) is given as 9.7.

In the case of “urocortin 1 (DNPSLSIDLTFHLLRTLLELARTQSQRERAEQNRIIFDSV; ends and bridges not checked; UniProt P55089 83-122, looked up)”, the pKd_value (receptor crfr1_human (CRHR1, P34998)) is listed as 9.5 and the pKd_value [17] is listed as 9.6.

In the case of “urocortin 2 (IVLSLDVPIGLLQILLEQARARAAREQATTNARILARVGHC; ends and bridges not checked; UniProt Q96RP3 72-112, looked up)”, the pKd_value [17] is given as 8.6.

For “urocortin 3 (FTLSLDVPTNIMNLLFNIAKAKNLRAQAAANAHLMAQI; not fully specified; ends and bridges not checked; UniProt Q969E3 120-157, looked up)”, the pKd_value [17] is given as 8.

In the case of urotensin II-related peptide, the pIC50_value [18] is given as 8.6 and the pKd_value [18] is given as 9.6.

In the case of “α-neoendorphin (YGGFLRKYPK; Alpha-neoendorphin; UniProt P01213 175-184, looked up)”, the pKi_value [19] is listed as 10.2.

For β-CGRP, the pEC50_value (receptor calcr_human (CALCR), Calcitonin receptors, Class B1 (Secretin)) is listed as 7.2.

For β-endorphin, the pKi_value (receptor OPRD1 (oprd_human, P41143)) is listed as 8.3 and the pKi_value [19] is listed as 7.9.

For β-neoendorphin (YGGFLRKYP), the pKi_value [19] is given as 7.9.

In the case of γ-MSH, the pKd_value (receptor mc3r_human (MC3R, P41968)) is given as 8.5.

B1: INSL3 (protein, UniProt P51460 21-55; P51460 106-131, looked up)
Insulin-like 3 B chain: LGPAPTPEMREKLCGHHFVRALVRVCGGPRWSTEA
Insulin-like 3 A chain: AAATNPARYCCLSGCTQQDLLTLCPY
In the case of B1, the pKd_value [14] is listed as 10.4 and the pKi_value [14] is listed as 9.7.

B2: large neuromedin N (protein, UniProt P30990 24-148, looked up)
Large neuromedin N: SDSEEEMKALEADFLTNMHTSKISKAHVPSWKMTLLNVCSLVNNLNSPAEETGEVHEEELVARRKLPTALDGFSLEAMLTIYQLHKICHSRAFQHWELIQEDILDTGNDKNGKEEVIKRKIPYIL
modifications: Large neuromedin N
For B2, the pIC50_value (receptor NTSR1 (ntr1_human, P30989)) is given as 7.4.

B3: annexin I (protein, UniProt P04083 2-346, looked up)
Annexin A1: AMVSEFLKQAWFIENEEQEYVQTVKSSKGGPGSAVSPYPTFNPSSDVAALHKAIMVKGVDEATIIDILTKRNNAQRQQIKAAYLQETGKPLDETLKKALTGHLEEVVLALLKTPAQFDADELRAAMKGLGTDEDTLIEILASRTNKEIRDINRVYREELKRDLAKDITSDTSGDFRNALLSLAKGDRSEDFGVNEDLADSDARALYEAGERRKGTDVNVFNTILTTRSYPQLRRVFQKYTKYSKHDMNKVLDLELKGDIEKCLTAIVKCATSKPAFFAEKLHQAMKGVGTRHKALIRIMVSRSEIDMNDIKAFYQKMYGISLCQAILDETKGDYEKILVALCGGN
In the case of B3, the pKd_value (receptor fpr2_human (FPR2, P25090)) is listed as 6.5.
